PubChem BioAssay (NCI)
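The compound was tested at five concentrations on cells cultured in 96-well plates, with a 48-hour exposure period. TGI denotes the concentration required for complete inhibition of growth.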 Where a SMILES comes first, the peptide text is derived from it. The star is where a group is joined. Boc = CC(C)(C)OC(=O)*

Legend:
Assay in all cases: NCI tumour cell line growth inhibition, 48 h
CAKI-1 renal = test system: CAKI-1 renal
IGROV1 ovarian = test system: IGROV1 ovarian
MCF7 breast = test system: MCF7 breast
NCI-H226 lung = test system: NCI-H226 lung
NCI-H522 lung = test system: NCI-H522 lung
OVCAR-8 ovarian = test system: OVCAR-8 ovarian
RXF 393 renal = test system: RXF 393 renal
SF-268 CNS = test system: SF-268 CNS
SK-MEL-28 melanoma = test system: SK-MEL-28 melanoma
MDA-N = test system: MDA-N

SMILES | TGI (CAKI-1 renal) [µM] | TGI (IGROV1 ovarian) [µM] | TGI (MCF7 breast) [µM] | TGI (NCI-H226 lung) [µM] | TGI (NCI-H522 lung) [µM] | TGI (OVCAR-8 ovarian) [µM] | TGI (RXF 393 renal) [µM] | TGI (SF-268 CNS) [µM] | TGI (SK-MEL-28 melanoma) [µM] | TGI (MDA-N) [µM]
O=C(NCCN1CCOCC1)c1ccc2cc(C(=O)N3CC(CCl)c4ccc([N+](=O)[O-])cc43)[nH]c2c1 (stereo not drawn) | 52.4 | > 100 | > 100 | > 100 | 39.7 | 35.4 | 20.4 | 31.3 | > 100 | 
CN(C)c1ccc(C=C2N=C(c3ccccc3)N(c3cc(C(=O)c4ccccc4)ccc3N3C(=O)/C(=C/c4ccc(N(C)C)cc4)N=C3c3ccccc3)C2=O)cc1 | > 100 | > 100 | > 100 |  |  | 73.6 |  | > 100 | > 100 | 6.03
CN(C)C(=S)S | > 100 | > 100 | > 100 | > 100 | > 20.4 | > 100 | > 100 | > 100 | > 100 | 
COc1ccc(CC(O)CN2CCOCC2)cc1 (stereo not drawn) | > 100 | > 100 |  | > 100 | > 100 | > 100 | > 100 | > 100 | > 100 | > 100
COc1ccc(C#CC(=O)O)c(OC)c1 | > 100 |  | > 100 | > 100 |  | > 100 |  |  | > 100 | > 100
COc1cc(C2SCC(=O)N2c2ccc(NC(=O)c3ccc(N4C(=O)CSC4c4cc(OC)c(OC)c(OC)c4)cc3)cc2)cc(OC)c1OC (stereo not drawn) | > 100 | > 100 | > 100 |  | > 100 | > 100 | > 100 | > 100 | > 100 | 64
O=C1/C(=C\c2cccc(Oc3ccccc3)c2)S(=O)(=O)C(c2ccccc2)N1Cc1ccccc1 (stereo not drawn) | 75 |  | > 100 |  | 33.7 | 53.4 | 77.5 |  | 93.2 | 95.5
Cc1cn(C2OC(C)(CO)C(O)C2O)c(=O)[nH]c1=O (stereo not drawn) | > 100 | > 100 |  |  | > 100 | > 100 | > 100 | > 100 | > 100 | 
C=CCNC(=S)/N=C/c1c(O)c2ccccc2oc1=O | 82.6 | > 100 |  | > 100 | > 100 | > 100 | 85.8 | > 100 | > 100 | 
Brc1cccc(Nc2nc(-c3cccs3)nc3ccc(Br)cc23)c1 | 68.5 | > 100 | > 100 | > 100 | 54.9 | > 100 |  | > 100 | > 100 | 
c1ccc2c(c1)NC(C1OC3CCCN3C1C1Nc3ccccc3S1)S2 (stereo not drawn) | > 100 | > 100 | > 100 |  | > 100 | > 100 | 97 | > 100 | > 100 | 
CC(=O)N/N=C1\NC(=O)C[C@H]2[C@@H]3CC=C4C[C@@H](OC(C)=O)CC[C@]4(C)[C@H]3CC[C@]12C | > 100 | > 100 | > 100 | 54.6 | > 100 | > 100 |  | > 100 | 33 | > 100
O=C1c2cc3c(cc2CC1Br)CCC3 (stereo not drawn) | 3.23 | 9.3 |  | 11.4 | 3 | 4.04 | 4.04 | 28.5 | 8.56 | 3.48
Cc1cc(=O)c2c([nH]1)NS(=O)(=O)NC2=O | > 100 | > 100 |  | > 100 | > 100 | > 100 |  | > 100 | > 100 | 
O=[N+]([O-])/C(C(Cl)=C(Cl)Cl)=C(\Nc1cccc2cccnc12)SCc1ccccc1 | 43.3 |  | 36.5 | 48.6 |  |  |  | 42.3 | 33.9 | > 100
CC(C)(C)NC(=O)/C(=C\Sc1ccccc1)c1ccc2c(c1)OCO2 | > 100 | > 100 | 60.6 |  | 43.3 | > 100 |  | 52.3 | > 100 | 59.8
CC(C)(C)OC(=O)NCC(=O)NCC(=O)NCC(=O)NCC(=O)O (Boc-GGGG-OH) | > 100 | > 100 | > 100 |  | > 100 | > 100 | > 100 | > 100 | > 100 | 
CCOC(=O)/C=C(\C)c1ccc(C)cc1C | > 100 | > 100 |  | > 100 |  | > 100 | 27.7 | > 100 | 51.8 | 
O=C(/C=C/c1ccsc1)c1ccsc1 | 41.4 | 94.6 | 32.4 | 39 |  | 85.6 |  | > 100 | 89.3 | 49.7
Cc1c(S(=O)(=O)/N=C(\N)Nc2ccc(Cl)cc2)sc2ccc(Cl)cc12 |  | 31.9 | 35.8 | 44 | 30.1 | 38.9 | > 100 | 32 | 48.5 | 47.1
O=C1CN2C(c3ccccc3)=NN(c3ccc([N+](=O)[O-])cc3)C2(c2ccccc2)c2cc(Cl)ccc2N1CC1CC1 (stereo not drawn) | > 100 | > 100 | > 100 | > 100 | > 100 | > 100 | > 100 | > 100 | > 100 | 
C/C(CC1C2CCCC1C2)=N\NC(N)=O (stereo not drawn) | > 100 | > 100 | > 100 | > 100 | > 100 | > 100 |  | > 100 | > 100 | > 100
CCCCC1c2c([nH]c3ccccc23)C2C(=O)N(c3ccc(OC)cc3)C(=O)C2C1CCC (stereo not drawn) | 6.25 | > 10 |  | > 10 | > 10 | 8.24 | > 10 | > 10 | > 10 | 7.45
CO[C@]12CC(=O)C3(C(C[C@H]4CC5CC=C6C[C@@H](OC(C)=O)CC[C@]6(OC(C)=O)C5C[C@@]43C)C1)C1C[C@H]3[C@@H]4CC=C5C[C@@H](OC(C)=O)CC[C@]5(OC(C)=O)[C@H]4CC[C@]3(C)C12 (stereo partly drawn) | 34.3 | 42.8 | > 100 |  | 31.7 | > 100 |  | > 100 | > 100 | 30.6
